Consider one compound from BindingDB's records for doi:10.1016/s0960-894x(98)00670-2 (Vertex Pharmaceuticals, 1999).

The target in this assay is T1, Gag-Pol polyprotein [489-587] (Human immunodeficiency virus 1, UniProt P04585).
T1 construct: 489-587
Description: ChEBML_157552. As for the experimental part: Compound was assayed for inhibition against HIV protease activity

`COc1ccc(S(=O)(=O)N(CC2CCCC2)C[C@@H](O)CN(CCc2ccccc2)C(=O)OCc2cccnc2)cc1` [{(S)-3-[Cyclopentylmethyl-(4-methoxy-benzenesulfonyl)-amino]-2-hydroxy-propyl}-phenethyl-carbamic acid pyridin-3-ylmethyl ester] had an inhibition constant (Ki) of 0.017 µM.
